What was measured:
[1] = test system: 48 h in vitro NTHi biofilms; assay: NTHi biofilm assay (cfu enumeration); type: cell-based, non-typeable Haemophilus influenza; details: 300/60 μg·ml; 2 hours
Method: Bacterial strains used in this study were isolated from nasopharyngeal swabs of children aged 4 years. NTHi was sub-cultured from frozen stocks onto Colombia agar with chocolated horse blood (Oxoid, UK) and incubated for 18 h at 37° C. and 5% CO2, following which colonies were resuspended in Brain Heart Infusion (BHI) broth supplemented with 10 μg/ml Hemin and 2 μg/ml NAD, and grown to mid-exponential phase for experiments. Pseudomonas aeruginosa PA01 and a clinical methicillin resistant Staphylococcus aureus isolate were subcultured onto Colombia blood agar plates (Oxoid, UK) and grown in non-supplemented BHI. […]
Mid-exponential planktonic cultures were used to inoculate individual wells of untreated 6-well polystyrene plates (˜1.0×10^8 planktonic bacteria per well; Corning Incorporated, USA). Cultures were incubated at 37° C. and 5% CO2 for 48 h, replacing spent media with fresh supplemented BHI (NTHi) at 24 h. Prior to treatment spent media was removed and biofilms washed twice with Hanks' balanced salt solution (HBSS; Gibco, UK). Biofilms were treated with SurgihoneyRO™ or Acacia (both prepared in HBSS) at final concentrations of 7 to 213 g/L. To assess the effect of pH biofilms were treated with HBSS adjusted to pH6.3 (the pH of 71 g/L SurgihoneyRO™ in HBSS). For adjuvant assays biofilms were treated with 300 μg/mL amoxicillin and 60 μg/mL clavulanic acid (Co-amoxiclav). […]

[2] = 20° C. and 1 atm; cited from earlier work
[3] = test system: human nasal epithelial cell line; assay: Gene expression by quantitative real-time PCR in nasal epithelial cells; type: cell-based; details: 1 hour
Method: The fold change was calculated based on normalisation to the expression of the endogenous R-actin housekeeping gene. […] The dotted line for y=0 represents the untreated control group to which gene expression in the treatment groups were normalised and compared using an unpaired two tailed T test. *p≤0.05, ** […], *** p≤0.001, **** p≤0.0001; A human nasal epithelial cell line was used to investigate the immediate effect of SurgihoneyRO (also known as Surgihoney) on the integrity and function of the epithelium. In addition, a human mast cell line was used as a representative leukocyte to investigate immunological responses to SurgihoneyRO. Mast cells were selected because of their function as sentinel cells, being located just underneath the epithelium in tissues. Mast cells have close contact to the external environment, for example being found in the nasal mucosa, where they are ideally placed to participate in the early recognition of pathogens—by acting as immune effectors and modulatory cells with an essential role in linking innate and adaptive immunity in the host's defence against pathogens such as bacteria. […] In this case, we treated cells with an appropriate concentration range of pure hydrogen peroxide, from 0-400 uM.

[4] = test system: human mast cell line (HMC-1); assay: Gene expression by quantitative real-time PCR in mast cells; type: cell-based; details: 1 hour
Method: Gene-expression profiles for Th17 related cytokines were analysed in HMC-1 treated with 10 g/L or 100 g/L of SurgihoneyRO for 5 minutes, 1 hour and 2 hours using quantitative real-time PCR. The fold change was calculated based on normalisation to the expression of the endogenous R-actin housekeeping gene. […] The dotted line for y=0 represents the untreated control group to which gene expression in the treatment groups were normalised and compared using an unpaired two tailed T test. *p≤0.05, ** […], *** p≤0.001, **** p≤0.0001;
A human nasal epithelial cell line was used to investigate the immediate effect of SurgihoneyRO (also known as Surgihoney) on the integrity and function of the epithelium. In addition, a human mast cell line was used as a representative leukocyte to investigate immunological responses to SurgihoneyRO. Mast cells were selected because of their function as sentinel cells, being located just underneath the epithelium in tissues.
We then studied the response of the mast cell line (HMC-1) to SurgihoneyRO treatment.
In this case, we treated cells with an appropriate concentration range of pure hydrogen peroxide, from 0-400 uM.

co-amoxiclav
effect on biofilm viability [1]: no effect

O=C(CO)[C@@H](O)[C@H](O)[C@H](O)CO [Fructose]
solubility [2]: about 375 g/100 g water

OO [hydrogen peroxide]
IL22 expression, fold change ([3]; 40 μM): 0.90 fold
IL23R expression, fold change ([3]; 40 μM): 0.45 fold
IL22 expression, fold change ([3]; 200 μM): 1.42 fold
IL23R expression, fold change ([3]; 200 μM): 1.20 fold
GATA3 expression, fold increase ([3]; 400 μM): 0.92 fold
IL10 expression, fold change ([3]; 400 μM): 4.63 fold
IL22 expression, fold change ([3]; 400 μM): 4.55 fold
IL23R expression, fold change ([3]; 400 μM): 1.87 fold
MMP9 expression, fold change ([3]; 400 μM): 1.47 fold
RORγC expression, mean increase ([3]; 400 μM): 14.57 fold
IL22 expression, fold change ([4]; 40 μM): 0.60 fold
IL23R expression, fold change ([4]; 40 μM): 0.47 fold
IL22 expression, fold change ([4]; 200 μM): 1.25 fold
IL23R expression, fold change ([4]; 200 μM): 0.58 fold
MMP7 expression, fold increase ([4]; 200 μM): 3.07 fold
IL22 expression, fold change ([4]; 400 μM): 1.81 fold
IL23R expression, fold change ([4]; 400 μM): 1.05 fold
MMP7 expression, fold increase ([4]; 400 μM): 3.31 fold
RORγC expression, mean increase ([4]; 400 μM): 2.83 fold
